For one data set, the target named is T1, ME1 (Mus musculus, UniProt P06801).
T1 construct: from tissue; host or cells: mouse lung tissue (normoxia mice, lysate after intraperitoneal dosing)
T1 sequence (P06801 1-572): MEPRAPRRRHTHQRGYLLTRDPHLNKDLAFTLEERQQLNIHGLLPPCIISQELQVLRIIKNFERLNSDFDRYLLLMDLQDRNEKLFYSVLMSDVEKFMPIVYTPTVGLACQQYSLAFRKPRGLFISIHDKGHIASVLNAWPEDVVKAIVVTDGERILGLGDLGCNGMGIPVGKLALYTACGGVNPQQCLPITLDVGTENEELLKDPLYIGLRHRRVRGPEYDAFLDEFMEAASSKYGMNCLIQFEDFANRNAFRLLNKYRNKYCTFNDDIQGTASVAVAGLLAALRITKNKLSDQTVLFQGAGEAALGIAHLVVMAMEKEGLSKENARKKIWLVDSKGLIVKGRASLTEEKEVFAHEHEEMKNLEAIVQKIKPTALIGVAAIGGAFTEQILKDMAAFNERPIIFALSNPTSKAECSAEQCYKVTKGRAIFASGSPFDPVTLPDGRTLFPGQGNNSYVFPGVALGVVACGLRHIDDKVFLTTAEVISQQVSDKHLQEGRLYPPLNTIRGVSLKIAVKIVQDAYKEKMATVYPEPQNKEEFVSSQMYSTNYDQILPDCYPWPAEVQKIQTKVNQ
The data set is described as follows: Dose-finding: inhibition of ME1 enzymatic activity in lung tissue of normoxia mice after single intraperitoneal injection. Conditions: dose greater than or equal to 100 mg/kg (doses tested 1, 10, 100, 200, 500 mg/kg). Type of data set: in vivo. The method, then: Histone supernatants or mitochondrial extracts were used to detect ME1 enzymatic activity. (1) Liquid preparation: an ME1 reaction buffer (pH=7.4) was prepared from 67 mM triethanolamine and 5.0 mM manganese chloride. (2) Sample preparation: a protein lysate was centrifuged at 13,000 rpm for 15 min at 4° C. (3) Adding samples: a reaction system included ME1 reaction buffer+L-malic acid (3.3 mM)+β-NADP^+ (0.3 mM)+protein lysate, with a total volume of 150 μL. (4) Reading was done with a multi-functional microplate reader, at a reading temperature maintained at 37° C., and an absorbance value was monitored at a wavelength of 340 nm every 50 s for a total of 30 min. (5) The protein concentration was determined for standardization. (6) The change of absorbance per mg of protein per unit time was calculated. In the present disclosure, normoxia mice are intraperitoneally injected with ME1*, at single injection doses of 1, 10, 100, 200, and 500 mg/kg, respectively, to explore the inhibitory effect of ME1* on the enzymatic activity of ME1 in mouse lung tissues.

In another data set the test system is SuHx-induced PH mice. The data set can be described thus: Preventive treatment of SuHx-induced PH mice. Type of data set: in vivo, mouse. Conditions: compared with vehicle. The method, then:
8 to 10 week-old SPF-grade C57BL/6J male mice weighing 25 g to 30 g were fed in a hypoxia chamber (an oxygen concentration in the chamber was maintained at 10%) while receiving weekly subcutaneous injections of 20 mg/kg of SU5416 for 0 weeks (n=8), 1 week (n=8), 2 weeks (n=8), and 3 weeks (n=8). The mouse lung tissues were collected and assessed for RVSP and RVHI and analyzed for PAMT.
The RVSP can be used to evaluate a pulmonary artery pressure (PAP) of the mouse, and the RVHI can reflect the right ventricular involvement and right ventricular hypertrophy of the mouse due to excessive PVR. The specific operation steps were as follows: (1) After anesthetized with 2% pentobarbital sodium (50 mg/kg by intraperitoneal injection), the mice were fixed on an operating board. (2) Power Lab was started and then connected to a pressure transducer. (3) The skin of the anterior chest wall of the mouse was cut with surgical scissors to clearly expose the position of manubrium sternum. (4) A 22-gauge needle was inserted into the right ventricle (RV) at 45° along an intersection point of the manubrium sternum and the left costal margin through the closed chest, and a position of the needle tip in the heart cavity was determined by the waveform; a stable RVSP waveform was saved and an RVSP measured value were recorded through Chart program. (5) The mice were sacrificed to obtain the heart; excess connective tissue and appendages in the heart were removed, and a free wall of the right ventricle was cut; the right ventricle, left ventricle, and interventricular septum (Left ventricular+septum, LV+S) were weighed to calculate RVHI=RV/LV+S.
PAMT is used to analyze the morphological changes of pulmonary vessels. In the present disclosure, a primary antibody of α-smooth muscle actin (α-SMA), a surface marker of pulmonary vascular smooth muscle cells, was stained by immunohistochemistry, and then a percentage of PAMT was calculated to evaluate the pulmonary vascular remodeling of PH mice. […] After deparaffinized and antigen retrieval (a pH of citric acid buffer was 6.0), the section was incubated with a primary antibody against α-SMA at 4° C. overnight, and then incubated with a horseradish peroxidase-bound secondary antibody. After counterstained with hematoxylin, cell nuclei were rinsed with tap water and differentiated with 0.5% […], soaked in tap water for 15 min, routinely dehydrated, subjected to transparent treatment, sealed with glycerogelatin and photographed. Statistical analysis: pulmonary vessel thickness was measured with a diameter of (0-50) μm and (50-100) μm. At least 20 vessels with a diameter of (0-50) μm and at least 15 vessels with a diameter of (50-100) μm were assessed per mouse, and the PAMT percentage was calculated as: (outer circumference/2π-inner circumference/2π)/(outer circumference/2π)×100.
Echocardiography was conducted using a Vevo 2100 ultrasound imaging platform to evaluate the dynamic changes of blood flow in the right heart of PH mice. (1) The mice were depilated to fully expose the skin on the chest wall. (2) The mice were placed on a constant-temperature heating plate at 37° C., anesthetized with 3.0% isoflurane through the nose and mouth, and the inhalation was continued with 1.5% isoflurane after the mice were anesthetized. (3) The mice were smeared with a small amount of coupling agent on their limbs and the limbs were fixed, and dynamic changes of the body temperature, heart rate, respiration rate, and electrocardiogram for mice were continuously recorded, while ensuring that the mice were in a resting state. (4) The ultrasound probe was placed, an appropriate amount of coupling agent was added, the pulmonary artery acceleration time (PAAT), pulmonary artery ejection time (PAET), and velocity-time integral were determined at a short-axis position, and then obtained frequency spectrum was saved and added with color ultrasound. […]

Data set [1] in a line: Safety evaluation of preventive treatment (body weight, HE staining of organs). Type of data set: in vivo, mouse. Conditions: 100 mg/kg intraperitoneally once a day. How it is done:
Male SPF-grade C57BL/6J mice aged 8 to 10 weeks with a body weight of 25 g to 30 g were randomly divided into the following 4 groups: • (1) Normoxia+vehicle control group: 6 mice were fed in a normoxia environment for 3 weeks; from the second week, the mice were intraperitoneally injected with vehicle (100 mg/kg) once a day, for a total of 14 injections. • (2) Normoxia+ME1* treatment group: 6 mice were fed in a normoxia environment for 3 weeks; from the second week, the mice were intraperitoneally injected with ME1* (100 mg/kg) once a day, for a total of 14 injections. • (3) SuHx modeling+vehicle control group: 10 mice were treated with SuHx for 3 weeks (SuHx modeling method was the same as above); from the second week, the mice were intraperitoneally injected with vehicle (100 mg/kg) once a day, for a total of 14 injections. • (4) SuHx modeling+ME1* treatment group: 10 mice were treated with SuHx for 3 weeks; from the second week, the mice were intraperitoneally injected with ME1* (100 mg/kg) once a day, for a total of 14 injections. […]

[2] abbreviates: 100 mg/kg intraperitoneally once a day, 14 injections.
Where [3] appears, read: echocardiography, 100 mg/kg intraperitoneally once a day.

With `O=C1CC(N2CCN(c3ccc(O)cc3)CC2)C(=O)N1c1ccccc1` (stereo not drawn) [ME1*], the “enzymatic activity of ME1 in mouse lung tissue” value on ME1 is “significantly inhibited”. Besides, the “progression of PH” value with SuHx-induced PH mice (100 mg/kg intraperitoneally once a day from second week, 14 injections) was “significantly slowed”. Moreover, in the data set with SuHx-induced PH mice (setting [2]), the “RVHI (%)” value is recorded as “significantly lower” and the RVSP result was “significantly lower”. In the data set on SuHx-induced PH mice (setting [3]), the “PA AT/ET” value was “significantly higher” and the TAPSE result is recorded as “significantly higher”. For the same compound, the PAMT percentage entry in the data set with SuHx-induced PH mice (pulmonary artery diameters 0-50 μm and 50-100 μm, 100 mg/kg intraperitoneally once a day) was “significantly lower”. Further, the “tissue and organ damage (HE staining of lung, heart, liver, spleen, kidney, small intestine)” value in data set [1] (after the treatment, 14 injections) is “no obvious tissue and organ damage”. For the same compound, the “body weight of the mice” value in data set [1] (weighed every week, compared with vehicle group) is reported as “not significantly reduced”.

Values taken from US12558352B2, “Use of malic enzyme 1 (ME1) in preparation of drug for preventing and treating pulmonary hypertension (PH)” (Institute of Basic Medical Sciences, CAMS, priority 2022, dated 2026).
